# According to patent US20230346743A1, “COMBINATION CANCER THERAPIES” (The Board of Regents of the University of Oklahoma, priority 2018, published 2023):
# Columns and labels:
# Mycobacterium bovis BCG = conditions: Table of Brown et al., 2004; cited from earlier work
# Cervical Cancer = test: Dose reduction index at various fold effects in cervical cancer; type: cell-based, human; set-up: Palbociclib Dose: unit not given beside the values; conditions: cell line not named
# Source text: Combination Indices (CI's) were derived to determine the level of synergy using the Chow and Talalay method. […] The Dose Reduction Indices (DRIs) were derived to determine the level of reduction for one drug that could be allowed by addition of the second drug at various fold effects (Fas) of the combination treatment (Table 16).
# [1] = Toxicity in the MESOV mouse model (body weight, ascites, kidney and liver histology); type: in vivo
# Method: (§1) Four-week-old female athymic nude mice (NCr-Foxn1^nu) were obtained from Taconic Biosciences under an approved Institutional Animal Care and Use Committee (IACUC) protocol. Mice were acclimatized for two weeks, fed with a standard diet and ear tagged during the acclimatization period. The timing to tumor development after intraperitoneal injection with various amounts of MESOV cells was determined in a pilot study prior. In the intervention experiment, 6-week-old mice were injected with 20 million MESOV human ovarian cancer cells in their intraperitoneal region. Drug treatment was initiated 4 weeks after the injection of cancer cells. Mice were randomized to four treatment groups before the start of treatment based on their body weight. There was no significant (one-way ANOVA, p >0.999) difference in body weight between groups at the start of treatment. Twelve mice were allocated to each group based on the power analysis performed while designing experiment. The sample size was determined to provide over 80% power to detect a 915 mm^3 difference in tumor volume between PRIMA-1^MET treatment alone and the drug combination treatment using a two-sided 0.05 level t-test. SHetA2 was administered by gavage at 60 mg/kg in 30% Kolliphor HS15 (Sigma). Controls were gavaged with Kolliphor HS15 (30% in water). PRIMA-1^MET (10 mg/kg) was dissolved in phosphate buffered saline and injected into the peritoneum of mice every other day. Initially SHetA2 dosing was administered every day for two weeks in SHetA2 alone and drug combination groups, and then switched to every other day for the next three weeks due to the stress caused to the mice by daily gavage. Oral gavaging was performed with sterile disposable plastic feeding tubes 20 ga × 38 mm (Instech Laboratories, Inc., Plymouth Meeting, PA, USA). Three mice in the drug combination group died after two weeks of drug treatment due to gavaging incidents. Body weights were recorded and animal health was monitored weekly. After the end of drug intervention period, all mice were euthanized by CO2 asphyxiation followed by exsanguination, their tumors and other vital organs were collected for further analysis. After measuring the total tumor weight, a portion of the tumors were snap frozen in liquid nitrogen and another portion was formalin fixed. The formalin fixed tissue samples were paraffin embedded, sectioned and stained with hematoxylin and eosins for histology studies. An experienced pathologist reviewed blinded histology slides for kidney and liver toxicity.
# [2] = test system: MESOV human ovarian cancer cells; test: Tumor establishment after intraperitoneal injection of MESOV cells (secondary chemoprevention model); type: in vivo; conditions: nu/nu mice, MESOV i.p.
# Method: as §1, with “The sample size was determined to provide over 80% power to detect a 915 mm^3 difference in tumor volume between PRIMA-1^MET treatment alone and the drug combination treatment using a two-sided 0.05 level t-test. SHetA2 was administered by gavage at 60 mg/kg in 30% Kolliphor HS15 (Sigma).” left out, “PRIMA-1^MET” left out, “toxicity. Presence or absence of tumor at the end of the treatment period was used as the primary outcome measure. […] Two by two logistic regression was used to compare the four treatment groups (Untreated control, SHetA2, […] combination) in the study. Mice in the first 3 groups had complete data, while 3 mice in the combo group died early and had zero tumor weights. […]” for “toxicity.”
# R282W m-p53 = test: P53 luciferase reporter assay in MESOV cells; type: cell-based, human; conditions: 60 µM PRIMA-1^MET, 24 h
# Method: To determine the transcriptional activity of p53, MESOV cells were transfected with PG13-Luc plasmids. Approximately 5,000 transfected cells were seeded on to each well of 96-well plate and incubated overnight. These cells were treated with either control solvent, 5 µM SHetA2 or 60 µM PRIMA-1^MET for 24 h. Luciferase activity of the reporter was measured with the One-glo luciferase reporter assay kit (Promega, Madison, WI, USA) and a Biotek Synergy H1 plate reader (BioteK, Winooski, VT, USA). The MTT assay was performed in parallel cultures and used to normalize the p53 reporter activity to the amount of viable cells.
# [3] = infusion in cancer patients; cited from earlier work
# SKOV3 R273H = test: MTT cytotoxicity assay; type: cell-based; conditions: Homo sapiens, SK-OV-3; SKOV3 permanently transfected with R273H m-p53, MTT
# Method: Cells plated at 2000 cells/well in 96 well microtiter plates were incubated for 36-48 h and treated with a range of doses and combinations of SHetA2 and PRIMA-1 or PRIMA-1^MET, or the same volume of DMSO solvent for 72 h of incubation. The percentage of growth for single drug treatments or fold effect (1 - ratio of treated/untreated growth) was measured using the CellTiter 96 AQueous Non-Radioactive Cell Proliferation Assay (Promega, Madison, WI, USA) and the BioTeK SYNERGY H1 (BioTeK, Winooski, VT, USA). Each experiment was performed in triplicate and repeated 2-3 times.
# The potencies (IC50′s) of SHetA2 or PRIMA-1 were determined using GraphPad Prism 6 software analysis of average MTT Optical Density vs drug dose. […] Single drug treatments at doses surrounding the IC50 values were evaluated parallel. All treatments were performed in triplicate and averages used to draw isobolograms and calculate combination indices (CI) and dose-reduction indices (DRIs) using CompuSyn Software according to the Chou and Talalay method (op cit). All experiments were repeated at least twice for each cell line to confirm results.
# p21 = test: Western blots of p21 in ovarian cancer cell lines; type: cell-based, human; conditions: A2780, SKOV3, SKOV3 R273H, SKOV3 R248W
# Method: Proteins were extracted from cell cultures using M-PER mammalian protein extraction reagent (ThermoFisher, Waltham, MA, USA) and volumes corresponding to 30 µg determined with BCA reagent (ThermoFisher, Waltham, MA, USA) were electrophoresed into a SDS-PAGE gel and transferred to PVDF membranes. Membranes were blocked (5% dry skim milk powder in TBST buffer) for at least 1 h or overnight, washed thrice with TBST and then incubated with primary antibody: p53 DO-1, β-actin, histone H3, GAPDH (Santa Cruz Biotechnology, Dallas, TX, USA) and mortalin, Tom20, V5 tag antibodies, p21, PARP, SLC7A11, caspase 3 (Cell Signaling Technology, Danvers, MA, USA) for at least 1 h or overnight. After three washes, membranes were incubated with anti-mouse HRP conjugated (Santa Cruz Biotechnology, Dallas, TX, USA) or anti-Rabbit HRP conjugated (Cell Signaling Technology, Danvers, MA, USA) for 40 min. Membranes then were washed and developed with ECL reagents (BioRad, Hercules, CA, USA). Bands were imaged and quantified (ChemiDoc imaging system with Image Lab Software/BioRad).
# TP21 gene = test: qRT-PCR of TP21 in SKOV3 cells; type: cell-based, human; conditions: SKOV3 parental (p53 null) and R273H m-p53 cells; SHetA2 10 µM, PRIMA-1 20 µM, 16 h
# parental SKOV-3 cells = test: MTT cytotoxicity assay; type: cell-based, human; conditions: parental SKOV-3 p53 null cells
SMILES,range (Mycobacterium bovis BCG),other results
CCOC(=O)c1ccc(NC(=O)Nc2ccc3c(c2)C(C)(C)CC(C)(C)O3)cc1,20.0-40.0,
CCOC(=O)c1ccc(NC(=S)Nc2ccc3c(c2)C(C)(C)CC(C)(C)S3)cc1,20.0-40.0,
CC(=C/C=N/NC(N)=S)/C=C/c1ccc2c(c1)C(C)CC(C)(C)N2C (stereo not shown),10.0-20.0,
CCOC(=O)c1ccc(NC(=S)Nc2ccc3c(c2)C(C)=CC(C)(C)N3C)cc1,20.0-40.0,
"CC(=O)c1c(C)c2cnc(Nc3ccc(N4CCNCC4)cn3)nc2n(C2CCCC2)c1=O [Palbociclib, reference compound]",,Palbociclib Dose (Cervical Cancer; Fold Effect (Fa) 0.05): 7.16; Palbociclib Dose (Cervical Cancer; Fold Effect (Fa) 0.75): 24.03; Palbociclib Dose (Cervical Cancer; Fold Effect (Fa) 0.90): 80.72; Palbociclib Dose (Cervical Cancer; Fold Effect (Fa) 0.95): 184.00
COC(=O)c1ccc(C(=O)Oc2ccc3c(c2)OC(C)(C)C=C3C)cc1,2.0-4.0,
CCOC(=O)c1ccc(NC(=O)Nc2cccc3c2OC(C)(C)CC3(C)C)cc1,20.0-40.0,
CCOC(=O)c1ccc(NC(=S)Nc2ccc3c(c2)C(C)(C)CC(C)(C)O3)cc1,5.0-10.0,
"COCC1(CO)C(=O)C2CCN1CC2 (stereo not shown) [PRIMA-1^MET, 2-(hydroxymethyl)-2-(methoxymethyl)-1-azabicyclo [2.2.2]octan-3-one]",,"Kidney or liver toxicity (H & E histology) ([1]; mouse, in vivo, ip): did not cause kidney or liver toxicity; Average body weights compared with mock group ([1]; nu/nu mice, MESOV i.p.): significantly higher than the mock group; Effects on body weight or ascites (abdominal size) ([1]; nu/nu mice, MESOV i.p.): no significant effects on body weight or ascites; OR for preventing tumor development (additive logistic regression model) [2]: 4.464; Tumor-free rates ([2]; SHetA2 60 mg/kg gavage, PRIMA-1^MET 10 mg/kg i.p., treatment from day 28 for 38 days): 25%; p53 transcriptional activity (PG13-Luc reporter) (R282W m-p53): reactivation of R282W m-p53 in MESOV was observed; Clinical safety [3]: relatively safe with fully reversible central nervous system-related side effects"
COc1ccc2c(c1NC(=S)Nc1ccc([N+](=O)[O-])cc1)C(C)(C)COC2(C)C,20.0-40.0,
CCOC(=O)c1ccc(NC(=O)Nc2ccc3c(c2)C(C)=CC(C)(C)N3C)cc1,20.0-40.0,
CC1(C)CC(C)(C)c2cccc(NC(=S)Nc3ccc([N+](=O)[O-])cc3)c2O1,20.0-40.0,
CC(C)CCOc1ccc(NC(=S)Nc2ccc(OCCC(C)C)cc2)cc1,0.5-1.0,
CC1=CC(C)(C)N(C)c2ccc(NC(=S)Nc3ccc([N+](=O)[O-])cc3)cc21,20.0-40.0,
COc1ccc2c(c1NC(=S)NC(=O)c1ccc([N+](=O)[O-])cc1)C(C)(C)COC2(C)C,20.0-40.0,
CC1(C)CC(C)(C)c2cc(NC(=S)Nc3ccc([N+](=O)[O-])cc3)ccc2O1,20.0-40.0,
"O=C1C2CCN(CC2)C1(CO)CO [PRIMA-1, 2,2-Bishydroxymethyl-1-azabicyclo[2.2.2]octan-3-one, reference compound]",,IC50 (SKOV3 R273H): 40 µM; p21 protein (Western blot) (p21): only induced p21 protein expression in A2780 (wt p53); TP21 transcription (qRT-PCR) (TP21 gene): did not induce TP21 transcription; PRIMA-1 sensitivity (parental SKOV-3 cells): resistant
CCOC(=O)c1ccc(NC(=S)Nc2cccc3c2OC(C)(C)CC3(C)C)cc1,20.0-40.0,
CCOC(=O)c1ccc(NC(=O)Nc2ccc3c(c2)C(C)(C)CC(C)(C)S3)cc1,20.0-40.0,
